System: Beta vulgaris calli
Assay: DEX-inducible 35S-BnBBM-GR: shoot formation and callus-based transformation efficiency
Format: cell-based, Beta vulgaris (sugar beet)
Conditions: BnBBM-GR with DEX-induction
Method: By applying the following method callus for Beta vulgaris (sugar beet) has been induced: Micropropagated shoots were used as starting material. Shoots were multiplied in medium containing MS salts, 30 g/l sucrose, 0.25 mg/l benzyladenine (BAP) and 10 g/l agar (pH 6.0). To induce friable callus, leaf explants were incubated for 7-8 weeks in media having MS salts, 15 g/l sucrose, 2 mg/l BAP, and 8 g/l agar (pH 6.0).
For Agrobacterium-mediated transformation friable calli were mounted in media containing MS salts, 30 g/l sucrose, 1 mg/l GA3, 1 mg/l TDZ, and 10 g/l agar (pH 6.0) and kept for 1 week in the dark at 24° C. Agrobacterium harbouring the vector of IPR232-pS-01 (FIG. 12) was grown in medium containing 5 g/l tryptone, 2.5 g/l yeast extract, 1 g/l NaCl, 5 g/l mannitol, 0.1 g/l MgSO4×7H2O, 0.25 g/l KH2PO4, 1 g/l glutamic acid (pH 7.0) supplemented with the appropriate antibiotics, at 28° C., for 24 h. […]
For quantification of transformation rate a) the inducible BnBBM system based on DEX/GR as described above as well as a constitutive overexpression of BnBBM have been tested on an amenable genotype and a recalcitrant genotype. […]

C[C@@H]1C[C@H]2[C@@H]3CCC4=CC(=O)C=C[C@]4(C)[C@@]3(F)[C@@H](O)C[C@]2(C)[C@@]1(O)C(=O)CO [DEX, dexamethasone]
transformation efficiency (amenable genotype): around 70%
transformation efficiency (recalcitrant genotype): around 18%

From US12527270B2, “Promoting regeneration and transformation in plants” (KWS SAAT SE & CO. KGAA, priority 2020, dated 2026)
